Experimental data reported in ChEMBL document CHEMBL3885881, “DrugMatrix”.

Species: Rattus norvegicus
Assay: DrugMatrix - Regimen: Daily Repeat
Assay type: toxicity, organism-based, Sprague-Dawley
Set-up: regimen Daily Repeat, gender Male, age 6-8 weeks
Details: in vivo, po, route oral GAVAGE, vehicle 100 % WATER; for ABSOLUTE BASOPHIL / ABSOLUTE EOSINOPHIL / ABSOLUTE LYMPHOCYTE / ABSOLUTE MONOCYTE / ABSOLUTE SEGMENTED NEUTROPHIL / BASOPHIL / EOSINOPHIL / ERYTHROCYTE COUNT / HEMATOCRIT / HEMOGLOBIN / LEUKOCYTE COUNT / LYMPHOCYTE / MEAN CORPUSCULAR HEMOGLOBIN / MEAN CORPUSCULAR HEMOGLOBIN CONCENTRATION / MEAN CORPUSCULAR VOLUME / MONOCYTE / NEUTROPHIL / NUCLEATED RED BLOOD CELLS / PLATELET COUNT: tissue Blood; for ALANINE AMINOTRANSFERASE / ALBUMIN / ALKALINE PHOSPHATASE / ASPARTATE AMINOTRANSFERASE / BLOOD UREA NITROGEN / CARBON DIOXIDE / CHLORIDE / CHOLESTEROL / CREATINE PHOSPHOKINASE / CREATININE / GLUCOSE / LACTATE DEHYDROGENASE / LIPASE / PHOSPHORUS / POTASSIUM / SODIUM / TOTAL BILIRUBIN / TOTAL PROTEIN / URIC ACID: tissue Plasma
[1] = 0.3 mg/kg, 120 h, dose level Low, time 5 day
[2] = 6 mg/kg, 72 h, dose level High, time 3 day
[3] = 6 mg/kg, 120 h, dose level High, time 5 day

Which results are given for `Clc1cccc(Cl)c1N=C1NCCN1` [CLONIDINE]?
ABSOLUTE BASOPHIL [1]: 0 CELLS/uL; ABSOLUTE EOSINOPHIL [1]: 0 CELLS/uL; ABSOLUTE LYMPHOCYTE [1]: 12125.33 CELLS/uL; ABSOLUTE MONOCYTE [1]: 52.33 CELLS/uL; ABSOLUTE SEGMENTED NEUTROPHIL [1]: 1322.33 CELLS/uL; BASOPHIL [1]: 0%; EOSINOPHIL [1]: 0%; ERYTHROCYTE COUNT [1]: 5.47 x10E6/uL; HEMATOCRIT [1]: 34.07%; HEMOGLOBIN [1]: 13.73 G/DL; LEUKOCYTE COUNT [1]: 13.5 x10E3/uL; LYMPHOCYTE [1]: 89.33%; MEAN CORPUSCULAR HEMOGLOBIN [1]: 25.13 pg; MEAN CORPUSCULAR HEMOGLOBIN CONCENTRATION [1]: 40.3 G/DL; MEAN CORPUSCULAR VOLUME [1]: 62.3 fL; MONOCYTE [1]: 0.33%; NEUTROPHIL [1]: 10.33%; NUCLEATED RED BLOOD CELLS [1]: 0 /100WBC; PLATELET COUNT [1]: 1266.67 x10E3/uL; ALANINE AMINOTRANSFERASE [1]: 49.67 u/L; ALBUMIN [1]: 4.07 G/DL; ALKALINE PHOSPHATASE [1]: 360 u/L; ASPARTATE AMINOTRANSFERASE [1]: 94 u/L; BLOOD UREA NITROGEN [1]: 19 mg/dL; CARBON DIOXIDE [1]: 27 mmol/L; CHLORIDE [1]: 100.67 MEQ/L; CHOLESTEROL [1]: 70 mg/dL; CREATINE PHOSPHOKINASE [1]: 371.67 u/L; CREATININE [1]: 0.17 mg/dL; GLUCOSE [1]: 134.33 mg/dL; LACTATE DEHYDROGENASE [1]: 289.33 u/L; LIPASE [1]: 9 u/L; PHOSPHORUS [1]: 11.17 mg/dL; POTASSIUM [1]: 6.28 MEQ/L; SODIUM [1]: 140.53 MEQ/L; TOTAL BILIRUBIN [1]: 0.1 mg/dL; TOTAL PROTEIN [1]: 5.57 G/DL; URIC ACID [1]: 1.57 mg/dL; ABSOLUTE BASOPHIL [2]: 0 CELLS/uL; ABSOLUTE EOSINOPHIL [2]: 0 CELLS/uL; ABSOLUTE LYMPHOCYTE [2]: 11339 CELLS/uL; ABSOLUTE MONOCYTE [2]: 767 CELLS/uL; ABSOLUTE SEGMENTED NEUTROPHIL [2]: 6827.33 CELLS/uL; BASOPHIL [2]: 0%; EOSINOPHIL [2]: 0%; ERYTHROCYTE COUNT [2]: 6.6 x10E6/uL; HEMATOCRIT [2]: 40.63%; HEMOGLOBIN [2]: 16.17 G/DL; LEUKOCYTE COUNT [2]: 18.93 x10E3/uL; LYMPHOCYTE [2]: 61.33%; MEAN CORPUSCULAR HEMOGLOBIN [2]: 24.47 pg; MEAN CORPUSCULAR HEMOGLOBIN CONCENTRATION [2]: 39.8 G/DL; MEAN CORPUSCULAR VOLUME [2]: 61.5 fL; MONOCYTE [2]: 4%; NEUTROPHIL [2]: 34.67%; NUCLEATED RED BLOOD CELLS [2]: 0 /100WBC; PLATELET COUNT [2]: 1516.67 x10E3/uL; ALANINE AMINOTRANSFERASE [2]: 61 u/L; ALBUMIN [2]: 3.93 G/DL; ALKALINE PHOSPHATASE [2]: 306.67 u/L; ASPARTATE AMINOTRANSFERASE [2]: 172.33 u/L; BLOOD UREA NITROGEN [2]: 58 mg/dL; CARBON DIOXIDE [2]: 23.33 mmol/L; CHLORIDE [2]: 96 MEQ/L; CHOLESTEROL [2]: 67.33 mg/dL; CREATINE PHOSPHOKINASE [2]: 987.33 u/L; CREATININE [2]: 0.52 mg/dL; GLUCOSE [2]: 154.33 mg/dL; LACTATE DEHYDROGENASE [2]: 310.33 u/L; LIPASE [2]: 8 u/L; PHOSPHORUS [2]: 12.97 mg/dL; POTASSIUM [2]: 6.5 MEQ/L; SODIUM [2]: 140.77 MEQ/L; TOTAL BILIRUBIN [2]: 0.27 mg/dL; TOTAL PROTEIN [2]: 6.13 G/DL; URIC ACID [2]: 2.17 mg/dL; ABSOLUTE BASOPHIL [3]: 0 CELLS/uL; ABSOLUTE EOSINOPHIL [3]: 46 CELLS/uL; ABSOLUTE LYMPHOCYTE [3]: 9488.67 CELLS/uL; ABSOLUTE MONOCYTE [3]: 118.67 CELLS/uL; ABSOLUTE SEGMENTED NEUTROPHIL [3]: 2180 CELLS/uL; BASOPHIL [3]: 0%; EOSINOPHIL [3]: 0.33%; ERYTHROCYTE COUNT [3]: 6.57 x10E6/uL; HEMATOCRIT [3]: 38.83%; HEMOGLOBIN [3]: 15.23 G/DL; LEUKOCYTE COUNT [3]: 11.83 x10E3/uL; LYMPHOCYTE [3]: 81.33%; MEAN CORPUSCULAR HEMOGLOBIN [3]: 23.2 pg; MEAN CORPUSCULAR HEMOGLOBIN CONCENTRATION [3]: 39.23 G/DL; MEAN CORPUSCULAR VOLUME [3]: 59.1 fL; MONOCYTE [3]: 1%; NEUTROPHIL [3]: 17.33%; NUCLEATED RED BLOOD CELLS [3]: 0 /100WBC; PLATELET COUNT [3]: 916 x10E3/uL; ALANINE AMINOTRANSFERASE [3]: 33.67 u/L; ALBUMIN [3]: 4.07 G/DL; ALKALINE PHOSPHATASE [3]: 207 u/L; ASPARTATE AMINOTRANSFERASE [3]: 74 u/L; BLOOD UREA NITROGEN [3]: 20.67 mg/dL; CARBON DIOXIDE [3]: 30.67 mmol/L; CHLORIDE [3]: 104 MEQ/L; CHOLESTEROL [3]: 62.67 mg/dL; CREATINE PHOSPHOKINASE [3]: 177 u/L; CREATININE [3]: 0.25 mg/dL; GLUCOSE [3]: 163 mg/dL; LACTATE DEHYDROGENASE [3]: 128 u/L; LIPASE [3]: 9 u/L; PHOSPHORUS [3]: 8.13 mg/dL; POTASSIUM [3]: 5.61 MEQ/L; SODIUM [3]: 148.9 MEQ/L; TOTAL BILIRUBIN [3]: 0.2 mg/dL; TOTAL PROTEIN [3]: 5.9 G/DL; URIC ACID [3]: 0.7 mg/dL
